Test in all cases: relative viability (nuclei count vs DMSO), 5 days (fraction); higher = more cells survive
Compound in the experiment “NVP-TAE684 + OSI-027”: COc1cc(N2CCC(N3CCN(C)CC3)CC2)ccc1Nc1ncc(Cl)c(Nc2ccccc2S(=O)(=O)C(C)C)n1 [NVP-TAE684] + COc1cccc2cc(-c3nc([C@H]4CC[C@H](C(=O)O)CC4)n4ncnc(N)c34)[nH]c12 [OSI-027] (partner 0.5 µM)
Put shortly:
(§1)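 Cells from lung cancer lines were seeded into 1536-well plates and, one day later, dosed by pin tool. Treatments were either a single drug or a fixed dose of an anchor drug with five library-drug doses (not always all listed) in √10 steps. After 5 days, nuclei were stained in a one-step fixation (final 0.05% Triton X-100, 1% formaldehyde, 1 ug/ml Hoechst) and counted on 4× images, and relative viability is the treated-to-vehicle nuclei ratio, as the median of duplicate plates.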

Compound in the experiment “NVP-TAE684 + AZD7762”: COc1cc(N2CCC(N3CCN(C)CC3)CC2)ccc1Nc1ncc(Cl)c(Nc2ccccc2S(=O)(=O)C(C)C)n1 [NVP-TAE684] + NC(=O)Nc1cc(-c2cccc(F)c2)sc1C(=O)N[C@H]1CCCNC1 [AZD7762] (partner 0.2 µM)
The essentials: as §1

Compound in the experiment “Vandetanib + Tozasertib”: COc1cc2/c(=N/c3ccc(Br)cc3F)nc[nH]c2cc1OCC1CCN(C)CC1 [Vandetanib] + Cc1cc(Nc2cc(N3CCN(C)CC3)nc(Sc3ccc(NC(=O)C4CC4)cc3)n2)n[nH]1 [Tozasertib] (partner 0.1 µM)
The essentials:
as §1

Compound in the experiment “Vandetanib + Decitabine”: COc1cc2/c(=N/c3ccc(Br)cc3F)nc[nH]c2cc1OCC1CCN(C)CC1 [Vandetanib] + Nc1ncn([C@H]2C[C@H](O)[C@@H](CO)O2)c(=O)n1 [Decitabine] (partner 2 µM)
Put shortly: as §1

Take NCI-H1648: the relative viability worked out at 0.255 in the experiment with NVP-TAE684 + OSI-027 (first compound 0.2 µM); 0.226 with NVP-TAE684 + OSI-027 (first compound 0.6325 µM); 0.216 in the experiment with NVP-TAE684 + OSI-027 (first compound 2 µM); 0.677 with NVP-TAE684 + AZD7762 (first compound 0.2 µM); 0.56 in the experiment with NVP-TAE684 + AZD7762 (first compound 0.6325 µM); 0.399 with NVP-TAE684 + AZD7762 (first compound 2 µM). The relative viability stood at 0.515 in the experiment with Vandetanib + Tozasertib (first compound 0.02 µM); 0.492 with Vandetanib + Tozasertib (first compound 0.06325 µM); 0.569 with Vandetanib + Tozasertib (first compound 0.2 µM); 0.657 with Vandetanib + Tozasertib (first compound 0.6325 µM); 0.318 with Vandetanib + Tozasertib (first compound 2 µM); 0.55 with Vandetanib + Decitabine (first compound 0.02 µM). In addition, the relative viability with Vandetanib + Decitabine (first compound 0.06325 µM) was 0.52; in the experiment with Vandetanib + Decitabine (first compound 0.2 µM) it was 0.479; with Vandetanib + Decitabine (first compound 0.6325 µM), 0.49; in the experiment with Vandetanib + Decitabine (first compound 2 µM) it was 0.418.

In the case of NCI-H1651, the relative viability with NVP-TAE684 + OSI-027 (first compound 0.2 µM) amounted to 0.692; with NVP-TAE684 + OSI-027 (first compound 0.6325 µM) it was 0.79; with NVP-TAE684 + OSI-027 (first compound 2 µM) it was 0.295; with NVP-TAE684 + AZD7762 (first compound 0.2 µM), 0.423; with NVP-TAE684 + AZD7762 (first compound 0.6325 µM) it was 0.48; in the experiment with NVP-TAE684 + AZD7762 (first compound 2 µM), 0.401. In addition, the relative viability is 0.68 with Vandetanib + Tozasertib (first compound 0.02 µM); 0.688 with Vandetanib + Tozasertib (first compound 0.06325 µM); 0.14 with Vandetanib + Tozasertib (first compound 0.2 µM); 0.854 with Vandetanib + Tozasertib (first compound 0.6325 µM); 0.686 in the experiment with Vandetanib + Tozasertib (first compound 2 µM); 0.609 in the experiment with Vandetanib + Decitabine (first compound 0.02 µM). Further, the relative viability came out at 0.583 with Vandetanib + Decitabine (first compound 0.06325 µM), 0.572 with Vandetanib + Decitabine (first compound 0.2 µM), 0.628 with Vandetanib + Decitabine (first compound 0.6325 µM) and 0.45 with Vandetanib + Decitabine (first compound 2 µM).

Consider NCI-H1666, for which the relative viability in the experiment with NVP-TAE684 + OSI-027 (first compound 0.2 µM) is 0.901; with NVP-TAE684 + OSI-027 (first compound 0.6325 µM), 0.767; with NVP-TAE684 + OSI-027 (first compound 2 µM), 0.641; with NVP-TAE684 + AZD7762 (first compound 0.2 µM), 0.898; with NVP-TAE684 + AZD7762 (first compound 0.6325 µM), 0.889; with NVP-TAE684 + AZD7762 (first compound 2 µM), 0.652. In addition, the relative viability with Vandetanib + Tozasertib (first compound 0.02 µM) is 0.606; with Vandetanib + Tozasertib (first compound 0.06325 µM), 0.581; in the experiment with Vandetanib + Tozasertib (first compound 0.2 µM), 0.387; with Vandetanib + Tozasertib (first compound 0.6325 µM), 0.577; with Vandetanib + Tozasertib (first compound 2 µM) it was 0.633; with Vandetanib + Decitabine (first compound 0.02 µM) it was 0.74. Moreover, the relative viability with Vandetanib + Decitabine (first compound 0.06325 µM) came out at 0.675; with Vandetanib + Decitabine (first compound 0.2 µM), 0.731; with Vandetanib + Decitabine (first compound 0.6325 µM), 0.757; with Vandetanib + Decitabine (first compound 2 µM), 0.553.

For NCI-H1734, the relative viability came to 0.679 with NVP-TAE684 + OSI-027 (first compound 0.2 µM); 0.518 in the experiment with NVP-TAE684 + OSI-027 (first compound 0.6325 µM); 0.387 with NVP-TAE684 + OSI-027 (first compound 2 µM); 0.481 with NVP-TAE684 + AZD7762 (first compound 0.2 µM); 0.443 in the experiment with NVP-TAE684 + AZD7762 (first compound 0.6325 µM); 0.432 in the experiment with NVP-TAE684 + AZD7762 (first compound 2 µM). Moreover, the relative viability with Vandetanib + Tozasertib (first compound 0.02 µM) was 0.24; with Vandetanib + Tozasertib (first compound 0.06325 µM), 0.289; with Vandetanib + Tozasertib (first compound 0.2 µM), 0.14; with Vandetanib + Tozasertib (first compound 0.6325 µM), 0.216; in the experiment with Vandetanib + Tozasertib (first compound 2 µM), 0.261; with Vandetanib + Decitabine (first compound 0.02 µM) it was 0.495. The relative viability with Vandetanib + Decitabine (first compound 0.06325 µM) stood at 0.494; with Vandetanib + Decitabine (first compound 0.2 µM), 0.537; in the experiment with Vandetanib + Decitabine (first compound 0.6325 µM) it was 0.526; with Vandetanib + Decitabine (first compound 2 µM) it was 0.513.

As for NCI-H1755, the relative viability with NVP-TAE684 + OSI-027 (first compound 0.2 µM) turned out to be 0.636; with NVP-TAE684 + OSI-027 (first compound 0.6325 µM) it was 0.672; in the experiment with NVP-TAE684 + OSI-027 (first compound 2 µM), 0.453; with NVP-TAE684 + AZD7762 (first compound 0.2 µM), 0.434; with NVP-TAE684 + AZD7762 (first compound 0.6325 µM) it was 0.427; in the experiment with NVP-TAE684 + AZD7762 (first compound 2 µM), 0.328. The relative viability with Vandetanib + Tozasertib (first compound 0.02 µM) stood at 0.581; in the experiment with Vandetanib + Tozasertib (first compound 0.06325 µM) it was 0.568; with Vandetanib + Tozasertib (first compound 0.2 µM), 0.648; with Vandetanib + Tozasertib (first compound 0.6325 µM), 0.536; with Vandetanib + Tozasertib (first compound 2 µM), 0.567; with Vandetanib + Decitabine (first compound 0.02 µM), 0.71. Besides, the relative viability with Vandetanib + Decitabine (first compound 0.06325 µM) was determined as 0.678; in the experiment with Vandetanib + Decitabine (first compound 0.2 µM), 0.709; in the experiment with Vandetanib + Decitabine (first compound 0.6325 µM), 0.763; with Vandetanib + Decitabine (first compound 2 µM) it was 0.623.

Regarding NCI-H1793, the relative viability came to 0.267 with NVP-TAE684 + OSI-027 (first compound 0.2 µM); 0.274 with NVP-TAE684 + OSI-027 (first compound 0.6325 µM); 0.204 with NVP-TAE684 + OSI-027 (first compound 2 µM); 0.479 with NVP-TAE684 + AZD7762 (first compound 0.2 µM); 0.247 with NVP-TAE684 + AZD7762 (first compound 0.6325 µM); 0.169 with NVP-TAE684 + AZD7762 (first compound 2 µM). Besides, the relative viability with Vandetanib + Tozasertib (first compound 0.02 µM) worked out at 0.335; with Vandetanib + Tozasertib (first compound 0.06325 µM), 0.351; in the experiment with Vandetanib + Tozasertib (first compound 0.2 µM) it was 0.195; in the experiment with Vandetanib + Tozasertib (first compound 0.6325 µM), 0.341; with Vandetanib + Tozasertib (first compound 2 µM), 0.242; with Vandetanib + Decitabine (first compound 0.02 µM), 0.424. Moreover, the relative viability with Vandetanib + Decitabine (first compound 0.06325 µM) was 0.407; in the experiment with Vandetanib + Decitabine (first compound 0.2 µM), 0.517; in the experiment with Vandetanib + Decitabine (first compound 0.6325 µM), 0.401; with Vandetanib + Decitabine (first compound 2 µM) it was 0.439.

As to NCI-H1915, the relative viability worked out at 0.678 in the experiment with NVP-TAE684 + OSI-027 (first compound 0.2 µM); 0.668 with NVP-TAE684 + OSI-027 (first compound 0.6325 µM); 0.611 with NVP-TAE684 + OSI-027 (first compound 2 µM); 0.699 in the experiment with NVP-TAE684 + AZD7762 (first compound 0.2 µM); 0.742 with NVP-TAE684 + AZD7762 (first compound 0.6325 µM); 0.595 with NVP-TAE684 + AZD7762 (first compound 2 µM). Moreover, the relative viability was 0.424 in the experiment with Vandetanib + Tozasertib (first compound 0.02 µM); 0.422 with Vandetanib + Tozasertib (first compound 0.06325 µM); 0.438 with Vandetanib + Tozasertib (first compound 0.2 µM); 0.419 in the experiment with Vandetanib + Tozasertib (first compound 0.6325 µM); 0.412 in the experiment with Vandetanib + Tozasertib (first compound 2 µM); 0.245 with Vandetanib + Decitabine (first compound 0.02 µM). Moreover, the relative viability with Vandetanib + Decitabine (first compound 0.06325 µM) was determined as 0.255; in the experiment with Vandetanib + Decitabine (first compound 0.2 µM), 0.274; in the experiment with Vandetanib + Decitabine (first compound 0.6325 µM), 0.263; in the experiment with Vandetanib + Decitabine (first compound 2 µM), 0.248.

Turning to NCI-H1944, the relative viability with NVP-TAE684 + OSI-027 (first compound 0.2 µM) was 0.428; in the experiment with NVP-TAE684 + OSI-027 (first compound 0.6325 µM) it was 0.36; with NVP-TAE684 + OSI-027 (first compound 2 µM) it was 0.278; with NVP-TAE684 + AZD7762 (first compound 0.2 µM) it was 0.507; with NVP-TAE684 + AZD7762 (first compound 0.6325 µM) it was 0.441; with NVP-TAE684 + AZD7762 (first compound 2 µM) it was 0.348. Also, the relative viability was 0.262 in the experiment with Vandetanib + Tozasertib (first compound 0.02 µM); 0.265 with Vandetanib + Tozasertib (first compound 0.06325 µM); 0.235 with Vandetanib + Tozasertib (first compound 0.2 µM); 0.239 in the experiment with Vandetanib + Tozasertib (first compound 0.6325 µM); 0.243 with Vandetanib + Tozasertib (first compound 2 µM); 0.411 with Vandetanib + Decitabine (first compound 0.02 µM). Besides, the relative viability with Vandetanib + Decitabine (first compound 0.06325 µM) is 0.489; with Vandetanib + Decitabine (first compound 0.2 µM), 0.551; with Vandetanib + Decitabine (first compound 0.6325 µM), 0.463; in the experiment with Vandetanib + Decitabine (first compound 2 µM), 0.447.

Turning to NCI-H1975, the relative viability with NVP-TAE684 + OSI-027 (first compound 0.2 µM) amounted to 0.732; in the experiment with NVP-TAE684 + OSI-027 (first compound 0.6325 µM), 0.594; with NVP-TAE684 + OSI-027 (first compound 2 µM), 0.341; in the experiment with NVP-TAE684 + AZD7762 (first compound 0.2 µM) it was 0.694; in the experiment with NVP-TAE684 + AZD7762 (first compound 0.6325 µM), 0.649; in the experiment with NVP-TAE684 + AZD7762 (first compound 2 µM), 0.381. The relative viability came to 0.771 with Vandetanib + Tozasertib (first compound 0.02 µM); 0.714 in the experiment with Vandetanib + Tozasertib (first compound 0.06325 µM); 0.0829 with Vandetanib + Tozasertib (first compound 0.2 µM); 0.685 with Vandetanib + Tozasertib (first compound 0.6325 µM); 0.74 with Vandetanib + Tozasertib (first compound 2 µM); 0.399 with Vandetanib + Decitabine (first compound 0.02 µM). Further, the relative viability with Vandetanib + Decitabine (first compound 0.06325 µM) was determined as 0.401; with Vandetanib + Decitabine (first compound 0.2 µM), 0.422; in the experiment with Vandetanib + Decitabine (first compound 0.6325 µM), 0.419; with Vandetanib + Decitabine (first compound 2 µM) it was 0.387.

The values are drawn from the supplement of paper PMC10307832.
